Assay results reported in patent US20070128217A1 (priority 2003, published 2007).

Columns and labels:
[1] = system: antibodies in sera from SARS patients (sera 1a, 1b, 2, 6, 37, 62, London, SARS-yellow, SARS-green); assay type: binding, human; design: Binding of serum 6 to linear peptides of protein X1 of SARS-CoV Urbani / Binding of serum 37 to linear peptides of protein X1 of SARS-CoV Urbani / Binding of serum 6 to looped/cyclic peptide (PEPSCAN-ELISA) / Binding of serum 37 to looped/cyclic peptide (PEPSCAN-ELISA) / Binding of serum 37 to looped/cyclic peptides of protein X1 of SARS-CoV Urbani / Binding of serum 6 to linear peptides of protein X2 / Binding of serum 37 to linear peptides of protein X2 / Binding of serum 37 to looped/cyclic peptides of protein X2 of SARS-CoV Urbani / Binding of serum 6 to linear peptides of protein M of SARS-CoV Urbani / Binding of serum 37 to linear peptides of protein M of SARS-CoV Urbani / Binding of serum 6 to looped/cyclic peptides of protein M of SARS-CoV Urbani / Binding of serum 37 to looped/cyclic peptides of protein M of SARS-CoV Urbani / Binding of serum 6 to linear peptides of protein X3 of SARS-CoV Urbani / Binding of serum 37 to linear peptides of protein X3 of SARS-CoV Urbani / Binding of serum 37 to looped/cyclic peptides of protein X3 of SARS-CoV Urbani / Binding of serum 6 to linear peptides of protein X4 of SARS-CoV Urbani / Binding of serum 37 to linear peptides of protein X4 of SARS-CoV Urbani / Binding of serum 37 to looped/cyclic peptides of protein X4 of SARS-CoV Urbani / Binding of serum 6 to linear peptides of protein X5 of SARS-CoV Urbani / Binding of serum 37 to linear peptides of protein X5 of SARS-CoV Urbani / Binding of serum 37 to looped/cyclic peptides of protein X5 of SARS-CoV Urbani / Binding of serum 6 to linear peptides of protein N of SARS-CoV Urbani / Binding of serum 37 to linear peptides of protein N of SARS-CoV Urbani / Binding of serum 6 to linear peptide (PEPSCAN-ELISA) / Binding of serum 1a to looped/cyclic peptides of protein N of SARS-CoV Urbani / Binding of serum 1b to looped/cyclic peptides of protein N of SARS-CoV Urbani / Binding of serum 2 to looped/cyclic peptides of protein N of SARS-CoV Urbani / Binding of serum 6 to looped/cyclic peptides of protein N of SARS-CoV Urbani / Binding of serum 37 to looped/cyclic peptides of protein N of SARS-CoV Urbani / Binding of serum 62 to looped/cyclic peptides of protein N of SARS-CoV Urbani / Binding of serum London to looped/cyclic peptides of protein N of SARS-CoV Urbani / Binding of serum SARS-green to looped/cyclic peptides of protein N of SARS-CoV Urbani: unit not given here
[2] = system: rabbit serum obtained by immunizing a rabbit with the SARS-CoV strain Frankfurt 1; assay type: binding; design: Binding of a rabbit serum to linear peptides / Binding of a rabbit serum to looped peptides / Rabbit serum linear peptides / Rabbit serum looped peptides / Binding of a rabbit serum to linear peptides of protein N of SARS-CoV Urbani (Rabbit serum linear peptides) / Binding of a rabbit serum to looped/cyclic peptides of protein N of SARS-CoV Urbani (Rabbit serum looped peptides): unit not given here
[3] = system: recombinant human anti-SARS-CoV antibody 03-018; assay type: binding; design: Binding of antibody 03-018 to linear peptides of the N protein of SARS-CoV Urbani / Binding of antibody 03-018 to looped/cyclic peptides of the N protein of SARS-CoV Urbani: unit not given here
[4] = system: control sera (pooled serum of ten healthy LUMC hospital workers; commercial negative donor pooled serum from the Dutch bloodbank); assay type: binding, human; design: Binding of Control serum LUMC to linear peptides / Binding of Control serum Blood-bank to linear peptides / Binding of Control serum LUMC to looped peptides / Binding of Control Serum Blood-Bank to Looped peptides / Binding of Control serum LUMC to linear peptides of the protein M of SARS-CoV Urbani / Binding of Control serum Blood-bank to linear peptides of the protein M of SARS-CoV Urbani / Binding of Control serum LUMC to looped peptides of the protein M of SARS-CoV Urbani / Binding of Control Serum Blood-Bank to Looped peptides of the protein M of SARS-CoV Urbani: unit not given here

Sequence: GKMKELSPRWYFYYL
- Binding of serum 1a to linear peptides of protein N of SARS-CoV Urbani [1]: 0.2
- Binding of serum 1a to looped/cyclic peptides of protein N of SARS-CoV Urbani [1]: 0.3
- Binding of serum 1b to linear peptides of protein N of SARS-CoV Urbani [1]: 0.1
- Binding of serum 1b to looped/cyclic peptides of protein N of SARS-CoV Urbani [1]: 0.2
- Binding of serum 2 to linear peptides of protein N of SARS-CoV Urbani [1]: 0.1
- Binding of serum 2 to looped/cyclic peptides of protein N of SARS-CoV Urbani [1]: 0.5
- Binding of serum 6 to linear peptides of protein N of SARS-CoV Urbani [1]: 0.1
- Binding of serum 6 to looped/cyclic peptides of protein N of SARS-CoV Urbani [1]: 0.4
- Binding of serum 37 to linear peptides of protein N of SARS-CoV Urbani [1]: 0.5
- Binding of serum 37 to looped/cyclic peptides of protein N of SARS-CoV Urbani [1]: 0.8
- Binding of serum 62 to linear peptides of protein N of SARS-CoV Urbani [1]: 0.5
- Binding of serum 62 to looped/cyclic peptides of protein N of SARS-CoV Urbani [1]: 0.8
- Binding of serum London to linear peptides of protein N of SARS-CoV Urbani [1]: 0.4
- Binding of serum London to looped/cyclic peptides of protein N of SARS-CoV Urbani [1]: 0.7
- Binding of serum SARS-green to linear peptides of protein N of SARS-CoV Urbani [1]: 0.2
- Binding of serum SARS-green to looped/cyclic peptides of protein N of SARS-CoV Urbani [1]: 0.4
- Binding of serum SARS-yellow to linear peptides of protein N of SARS-CoV Urbani [1]: 0.6
- Binding of serum SARS-yellow to looped/cyclic peptides of protein N of SARS-CoV Urbani [1]: 0.6
- Binding of a rabbit serum to linear peptides of protein N of SARS-CoV Urbani (Rabbit serum linear peptides) [2]: 0.1
- Binding of a rabbit serum to looped/cyclic peptides of protein N of SARS-CoV Urbani (Rabbit serum looped peptides) [2]: 0.7
- Binding of antibody 03-018 to linear peptides of the N protein of SARS-CoV Urbani [3]: 0.1
- Binding of antibody 03-018 to looped/cyclic peptides of the N protein of SARS-CoV Urbani [3]: 0.3
- Binding of Control Serum Blood-Bank to Looped peptides [4]: 0.8
- Binding of Control serum Blood-bank to linear peptides [4]: 0.6
- Binding of Control serum LUMC to linear peptides [4]: 0.6
- Binding of Control serum LUMC to looped peptides [4]: 0.7

Sequence: GMEVTPSGTWLTYHG
- Binding of serum 1a to linear peptides of protein N of SARS-CoV Urbani [1]: 0.3
- Binding of serum 1a to looped/cyclic peptides of protein N of SARS-CoV Urbani [1]: 0.4
- Binding of serum 1b to linear peptides of protein N of SARS-CoV Urbani [1]: 0.1
- Binding of serum 1b to looped/cyclic peptides of protein N of SARS-CoV Urbani [1]: 0.2
- Binding of serum 2 to linear peptides of protein N of SARS-CoV Urbani [1]: 0.1
- Binding of serum 2 to looped/cyclic peptides of protein N of SARS-CoV Urbani [1]: 0.4
- Binding of serum 6 to linear peptides of protein N of SARS-CoV Urbani [1]: 0.2
- Binding of serum 6 to looped/cyclic peptides of protein N of SARS-CoV Urbani [1]: 0.3
- Binding of serum 37 to linear peptides of protein N of SARS-CoV Urbani [1]: 0.5
- Binding of serum 37 to looped/cyclic peptides of protein N of SARS-CoV Urbani [1]: 0.7
- Binding of serum 62 to linear peptides of protein N of SARS-CoV Urbani [1]: 0.6
- Binding of serum 62 to looped/cyclic peptides of protein N of SARS-CoV Urbani [1]: 0.8
- Binding of serum London to linear peptides of protein N of SARS-CoV Urbani [1]: 0.5
- Binding of serum London to looped/cyclic peptides of protein N of SARS-CoV Urbani [1]: 0.5
- Binding of serum SARS-green to linear peptides of protein N of SARS-CoV Urbani [1]: 0.2
- Binding of serum SARS-green to looped/cyclic peptides of protein N of SARS-CoV Urbani [1]: 0.4
- Binding of serum SARS-yellow to linear peptides of protein N of SARS-CoV Urbani [1]: 0.7
- Binding of serum SARS-yellow to looped/cyclic peptides of protein N of SARS-CoV Urbani [1]: 0.5
- Binding of a rabbit serum to linear peptides of protein N of SARS-CoV Urbani (Rabbit serum linear peptides) [2]: 0.1
- Binding of a rabbit serum to looped/cyclic peptides of protein N of SARS-CoV Urbani (Rabbit serum looped peptides) [2]: 0.4
- Binding of antibody 03-018 to linear peptides of the N protein of SARS-CoV Urbani [3]: 0.1
- Binding of antibody 03-018 to looped/cyclic peptides of the N protein of SARS-CoV Urbani [3]: 0.2
- Control Serum Blood-Bank Looped peptides [4]: 0.7
- Control serum Blood-bank linear peptides [4]: 0.6
- Control serum LUMC linear peptides [4]: 0.6
- Control serum LUMC looped peptides [4]: 0.7

Sequence: GMSRIGMEVTPSGTW
- Binding of serum 1a to linear peptides of protein N of SARS-CoV Urbani [1]: 0.3
- Binding of serum 1a to looped/cyclic peptides of protein N of SARS-CoV Urbani [1]: 0.3
- Binding of serum 1b to linear peptides of protein N of SARS-CoV Urbani [1]: 0.1
- Binding of serum 1b to looped/cyclic peptides of protein N of SARS-CoV Urbani [1]: 0.2
- Binding of serum 2 to linear peptides of protein N of SARS-CoV Urbani [1]: 0.2
- Binding of serum 2 to looped/cyclic peptides of protein N of SARS-CoV Urbani [1]: 0.3
- Binding of serum 6 to linear peptides of protein N of SARS-CoV Urbani [1]: 0.2
- Binding of serum 6 to looped/cyclic peptides of protein N of SARS-CoV Urbani [1]: 0.2
- Binding of serum 37 to linear peptides of protein N of SARS-CoV Urbani [1]: 0.7
- Binding of serum 37 to looped/cyclic peptides of protein N of SARS-CoV Urbani [1]: 0.5
- Binding of serum 62 to linear peptides of protein N of SARS-CoV Urbani [1]: 0.7
- Binding of serum 62 to looped/cyclic peptides of protein N of SARS-CoV Urbani [1]: 0.5
- Binding of serum London to linear peptides of protein N of SARS-CoV Urbani [1]: 0.5
- Binding of serum London to looped/cyclic peptides of protein N of SARS-CoV Urbani [1]: 0.4
- Binding of serum SARS-green to linear peptides of protein N of SARS-CoV Urbani [1]: 0.5
- Binding of serum SARS-green to looped/cyclic peptides of protein N of SARS-CoV Urbani [1]: 0.3
- Binding of serum SARS-yellow to linear peptides of protein N of SARS-CoV Urbani [1]: 0.7
- Binding of serum SARS-yellow to looped/cyclic peptides of protein N of SARS-CoV Urbani [1]: 0.5
- Binding of a rabbit serum to linear peptides of protein N of SARS-CoV Urbani (Rabbit serum linear peptides) [2]: 0.1
- Binding of a rabbit serum to looped/cyclic peptides of protein N of SARS-CoV Urbani (Rabbit serum looped peptides) [2]: 0.4
- Binding of antibody 03-018 to linear peptides of the N protein of SARS-CoV Urbani [3]: 0.1
- Binding of antibody 03-018 to looped/cyclic peptides of the N protein of SARS-CoV Urbani [3]: 0.2
- Control Serum Blood-Bank Looped peptides [4]: 0.6
- Control serum Blood-bank linear peptides [4]: 0.6
- Control serum LUMC linear peptides [4]: 0.6
- Control serum LUMC looped peptides [4]: 0.5

Sequence: GNFGDQDLIRQGTDY
- Binding of serum 1a to linear peptide (PEPSCAN-ELISA) [1]: 0.3
- Binding of serum 1a to looped/cyclic peptides of protein N of SARS-CoV Urbani [1]: 0.5
- Binding of serum 1b to linear peptide (PEPSCAN-ELISA) [1]: 0.2
- Binding of serum 1b to looped/cyclic peptides of protein N of SARS-CoV Urbani [1]: 0.3
- Binding of serum 2 to linear peptide (PEPSCAN-ELISA) [1]: 0.2
- Binding of serum 2 to looped/cyclic peptides of protein N of SARS-CoV Urbani [1]: 0.5
- Binding of serum 6 to linear peptide (PEPSCAN-ELISA) [1]: 0.2
- Binding of serum 6 to looped/cyclic peptides of protein N of SARS-CoV Urbani [1]: 0.3
- Binding of serum 37 to linear peptide (PEPSCAN-ELISA) [1]: 0.8
- Binding of serum 37 to looped/cyclic peptides of protein N of SARS-CoV Urbani [1]: 0.8
- Binding of serum 62 to linear peptide (PEPSCAN-ELISA) [1]: 0.7
- Binding of serum 62 to looped/cyclic peptides of protein N of SARS-CoV Urbani [1]: 0.8
- Binding of serum London to linear peptide (PEPSCAN-ELISA) [1]: 0.6
- Binding of serum London to looped/cyclic peptides of protein N of SARS-CoV Urbani [1]: 0.5
- Binding of serum SARS-green to linear peptide (PEPSCAN-ELISA) [1]: 0.5
- Binding of serum SARS-green to looped/cyclic peptides of protein N of SARS-CoV Urbani [1]: 0.7
- Binding of serum SARS-yellow to linear peptide (PEPSCAN-ELISA) [1]: 0.8
- Binding of serum SARS-yellow to looped/cyclic peptides of protein N of SARS-CoV Urbani [1]: 0.6
- Binding of a rabbit serum to linear peptides of protein N of SARS-CoV Urbani (Rabbit serum linear peptides) [2]: 0.2
- Binding of a rabbit serum to looped/cyclic peptides of protein N of SARS-CoV Urbani (Rabbit serum looped peptides) [2]: 0.5
- Binding of antibody 03-018 to linear peptides of the N protein of SARS-CoV Urbani [3]: 0.1
- Binding of antibody 03-018 to looped/cyclic peptides of the N protein of SARS-CoV Urbani [3]: 0.2
- Binding of Control Serum Blood-Bank to Looped peptides [4]: 0.9
- Binding of Control serum Blood-bank to linear peptides [4]: 0.7
- Binding of Control serum LUMC to linear peptides [4]: 0.6
- Binding of Control serum LUMC to looped peptides [4]: 0.9
